{"source": "BindingDB's records for doi:10.1021/jm00083a001", "about": "(Ici Pharmaceuticals Group, 1992)", "note": "pIC50: −log10 of the molar value."}
{"experiment": "Inhibition of prolyl 4-hydroxylase"}
{"smiles": "O=C(NS(=O)(=O)Cc1ccccc1)c1ccc(C(=O)O)nc1", "pIC50": 5.52}
{"smiles": "O=C(NS(=O)(=O)c1cccc2ccccc12)c1ccc(C(=O)O)nc1", "pIC50": 5.36}
{"smiles": "O=C(NS(=O)(=O)c1cc(Br)c(Br)s1)c1ccc(C(=O)O)nc1", "pIC50": 5.07}
{"smiles": "O=C(NS(=O)(=O)c1ccc(Cl)s1)c1ccc(C(=O)O)nc1", "pIC50": 5.62}
{"smiles": "O=C(NS(=O)(=O)c1cccc2cccnc12)c1ccc(C(=O)O)nc1", "pIC50": 5.74}
{"smiles": "O=C(NS(=O)(=O)c1ccc(-c2cc(Cl)c3ccc(Cl)cc3n2)cc1)c1ccc(C(=O)O)nc1", "pIC50": 5.18}
{"smiles": "CS(=O)(=O)NC(=O)c1ccc(C(=O)O)nc1", "pIC50": 5.74}
